Experimental data taken from patent US6960580B2, “Nitrogenous heterocyclic substituted quinoline compounds” (Millennium Pharmaceuticals, Inc., priority 2001, dated 2005).

How the values were obtained:
β-PDGFR [1] = target: T1, β-PDGFR (Homo sapiens, UniProt P09619); experiment: HR5 phosphorylation assay (CHO cells overexpressing human β-PDGFR, PDGF BB stimulation); format: cell-based; parameters: host or cells: CHO cells (HR5 line); details: 8 nM PDGF BB, PDGF receptor phosphorylation
Protocol: • (1) HR5 Phosphorylation Assay
The HR5 cell line is a cell line of CHO cells engineered to overexpress human β-PDGFR, which cell line is available from the ATCC. The expression level of β-PDGFR in HR5 cells is around 5×10^4 receptor per cell. For the phosphorylation assay according to the invention, HR5 cells were grown to confluency in 96-well microtiter plates under standard tissue culture conditions, followed by serum-starvation for 16 hours. Quiescent cells were incubated at 37° C. without or with increasing concentrations of the test compound (0.01-30 uM) for 30 minutes followed by the addition of 8 nM PDGF BB for 10 minutes. Cells were lysed in 100 mM Tris, pH 7.5, 750 mM NaCl, 0.5% Triton X-100, 10 mM sodium pyrophosphate, 50 mM NaF, 10 ug/ml aprotinin, 10 ug/ml leupeptin, 1 mM phenylmethylsulfonyl fluoride, 1 mM sodium vanadate, and the lysate was cleared by centrifugation at 15,000× g for 5 minutes. Clarified lysates were transferred into a second microtiter plate in which the wells were previously coated with 500 ng/well of 1B5B11 anti-β-PDGFR mAb, and then incubated for two hours at room temperature. […] Wells were washed prior to adding ABTS (Sigma), and the rate of substrate formation was monitored at 650 nm.

β-PDGFR [2] = target: T1, β-PDGFR; experiment: MG63 phosphorylation assay (endogenous β-PDGFR phosphorylation, PDGF-BB stimulation with human plasma); format: cell-based; parameters: This assay is for measuring endogenous β-PDGFR phosphorylation in MG63 cells; endogenous in cells; host or cells: MG63 human osteosarcoma cells (ATCC); details: MG63 human osteosarcoma cells; PDGF-BB stimulation in presence of 45% human plasma; PDGF receptor phosphorylation; read-out: MG63 w/human plasma IC50
Description: The MG63 cell line is a human osteosarcoma tumor cell line available from the ATCC. This assay is for measuring endogenous β-PDGFR phosphorylation in MG63 cells. The assay conditions are the same as those described at for HR5 cell, except that PDGF-BB stimulation is provided in the presence or absence of 45% human plasma.

T1 sequence (P09619 33-1106): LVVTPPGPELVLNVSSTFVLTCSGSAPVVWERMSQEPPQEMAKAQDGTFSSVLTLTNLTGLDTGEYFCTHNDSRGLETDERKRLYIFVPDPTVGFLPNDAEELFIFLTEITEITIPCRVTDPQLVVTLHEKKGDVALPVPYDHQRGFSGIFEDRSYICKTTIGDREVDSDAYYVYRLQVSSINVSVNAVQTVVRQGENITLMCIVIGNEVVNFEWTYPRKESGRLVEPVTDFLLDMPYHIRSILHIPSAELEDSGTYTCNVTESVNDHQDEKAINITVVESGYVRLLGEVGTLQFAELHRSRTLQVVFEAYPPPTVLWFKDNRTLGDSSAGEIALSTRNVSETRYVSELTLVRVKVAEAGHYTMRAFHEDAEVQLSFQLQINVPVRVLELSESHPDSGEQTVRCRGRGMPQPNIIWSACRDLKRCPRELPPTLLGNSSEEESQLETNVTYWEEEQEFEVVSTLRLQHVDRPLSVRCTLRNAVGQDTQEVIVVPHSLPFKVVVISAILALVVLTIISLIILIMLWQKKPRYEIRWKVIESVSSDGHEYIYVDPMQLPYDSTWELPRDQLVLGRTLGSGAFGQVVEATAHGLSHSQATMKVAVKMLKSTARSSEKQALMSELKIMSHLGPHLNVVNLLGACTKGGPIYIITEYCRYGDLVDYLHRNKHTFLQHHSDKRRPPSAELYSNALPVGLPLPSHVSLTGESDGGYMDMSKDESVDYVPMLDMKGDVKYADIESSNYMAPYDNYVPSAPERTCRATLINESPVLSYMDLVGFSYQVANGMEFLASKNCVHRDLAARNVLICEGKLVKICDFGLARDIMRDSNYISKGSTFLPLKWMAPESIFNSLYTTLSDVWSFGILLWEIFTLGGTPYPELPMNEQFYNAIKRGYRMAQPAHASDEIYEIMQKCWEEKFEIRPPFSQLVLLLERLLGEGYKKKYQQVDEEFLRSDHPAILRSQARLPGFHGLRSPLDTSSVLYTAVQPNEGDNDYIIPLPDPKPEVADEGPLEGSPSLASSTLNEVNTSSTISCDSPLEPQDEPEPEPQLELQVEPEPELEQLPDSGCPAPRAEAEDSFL

## COc1cc2c(N3CCN(C(=O)Nc4ccc(OC(C)C)cc4)CC3)c(C#N)cnc2cc1OCCCN1CCCCC1 [Example 1, {4-[3-cyano-6-methoxy-7-(3-pipetidylpropoxy)quinolin-4-yl)piperazinyl}-N-[4-(methylethoxy)phenyl]carboxamide]
β-PDGFR [1]
  IC50: 60 nM
β-PDGFR [2]
  IC50: 134 nM
